23 molecules from paper PMC12061832, “Exploring novel dilazep derivatives as hENT1 inhibitors and potentially covalent molecular tools” (Purinergic Signalling, 2024) can be followed below.

For the test, the target named is T1, hENT1 (Homo sapiens, UniProt Q99808).
T1 construct: performed on erythrocyte cell membranes endogenously expressing the transporter; tissue Sanquin Bloedvoorziening, Amsterdam, The Netherlands; host or cells: erythrocyte membranes (endogenous expression)
T1 sequence (Q99808 1-456): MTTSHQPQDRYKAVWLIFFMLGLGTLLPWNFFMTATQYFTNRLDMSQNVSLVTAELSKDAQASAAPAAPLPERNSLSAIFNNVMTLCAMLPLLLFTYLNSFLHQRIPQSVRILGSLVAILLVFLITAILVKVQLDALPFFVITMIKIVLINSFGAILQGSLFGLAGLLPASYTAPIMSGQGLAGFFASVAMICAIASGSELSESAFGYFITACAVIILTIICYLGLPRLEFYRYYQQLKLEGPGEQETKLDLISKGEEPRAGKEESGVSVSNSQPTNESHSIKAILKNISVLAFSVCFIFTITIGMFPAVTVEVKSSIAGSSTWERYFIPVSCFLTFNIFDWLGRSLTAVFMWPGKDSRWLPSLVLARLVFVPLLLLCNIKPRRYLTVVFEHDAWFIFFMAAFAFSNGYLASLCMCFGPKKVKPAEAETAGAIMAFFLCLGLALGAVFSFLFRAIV
The experiment in a line: [3H]NBTI displacement assay on erythrocyte membranes. The test is classed as binding. To be noted: for % displacement at 1 μM: 1 µM inhibitor, [3H]NBTI displacement, mean (individual values) of two experiments; for Ki: erythrocyte membranes, 4 nM [3H]NBTI, 10 °C, 1 h. The protocol:
Dilazep and ST7092 were obtained from ASTA-Werke AG (Bielefeld, Germany) and Chemie Linz AG (Linz, Austria), respectively. Radioligand displacement assays were performed as previously described. In brief, the experiments were performed on erythrocyte membranes (Sanquin Bloedvoorziening, Amsterdam, The Netherlands) using a single concentration of 1 µM or multiple concentrations (ranging from 10^–10 to 10^–6) of unlabeled inhibitors in the presence of 4 nM [^3H]NBTI at 10 °C for 1 h in assay buffer (50 mM Tris–HCl, pH 7.4, 0.1% w/v CHAPS). Non-specific binding (NSB) was assessed with 10 µM unlabeled NBTI. […] Subsequently, [^3H]NBTI was added to the preincubated and control samples (containing erythrocyte membranes, unlabeled inhibitor and radioligand) and both types of samples were incubated for another hour. Incubation was terminated by rapid vacuum filtration over Whatman™ UniFilter™ 96-well GF/C microplates using a FilterMate™ Universal Harvester (PerkinElmer, Groningen, The Netherlands). Subsequently, the plates were washed ten times with ice-cold wash buffer (50 mM Tris–HCl, pH 7.4). Thereafter, the filters were dried for 45 min at 55 °C and 25 µL of Microscint (PerkinElmer) was added per well. The filter-bound radioactivity was determined by scintillation spectrometry using a MicroBeta^2 2450 Microplate Counter (PerkinElmer).
For data analysis, dilazep and ST7092 were used as positive controls. All experimental data was analyzed using GraphPad Prism 10.0.2 software (GraphPad Software Inc., San Diego, CA, USA). [^3H]NBTI assays were baseline-corrected with NSB and normalized to this value (0%) and TB (100%). The radioligand displacement curves were fitted to a one-site binding model by nonlinear regression from which the pIC50 values were obtained. […] Data shown represent the mean ± SD of at least two or mean ± SEM of at least three individual experiments each performed in duplicate.
To determine the affinities of the non-covalent hENT1 inhibitors, a [^3H]NBTI displacement assay was performed on erythrocyte cell membranes endogenously expressing the transporter. All compounds were initially screened at a concentration of 1 µM to provide the percentage displacement. If more than 75% displacement was observed, compounds were subsequently characterized in full concentration-effect curves to determine their affinity.

By Ki is commonly meant the equilibrium dissociation constant of an inhibitor or competing ligand from its target.

“And” between values parts separate entries of the source, which are not always exact repeats. Equal values may be shown once.

Regarding `COc1cc(C(=O)OCCCN2CCN(CCCOC(=O)c3ccc(N(C)C)cc3)CC2)cc(OC)c1OC` [Compound 6h, 3-(4-(3-((4-(dimethylamino)benzoyl)oxy)propyl)piperazin-1-yl)propyl 3,4,5-trimethoxybenzoate], the “% displacement at 1 μM” value is on record as 19 (11, 26) %.
For the molecule “3-(4-(3-((4-(methylamino)benzoyl)oxy)propyl)piperazin-1-yl)propyl 3,4,5-trimethoxybenzoate [Compound 6i]”, the “% displacement at 1 μM” value is 6 (3, 9) %.
Turning to `COc1ccc(C(=O)OCCCN2CCN(CCCOC(=O)c3ccccc3OC)CC2)cc1OC` [Compound 6u, 3-(4-(3-((2-methoxybenzoyl)oxy)propyl)piperazin-1-yl)propyl 3,4-dimethoxybenzoate], the “% displacement at 1 μM” value was “little to no displacement and 12 (16, 9) %”.
Turning to `COc1cc(C(=O)OCCCN2CCN(CCCOC(=O)c3ccc(C)c(C)c3)CC2)cc(OC)c1OC` [Compound 6c, 3-(4-(3-((3,4-dimethylbenzoyl)oxy)propyl)piperazin-1-yl)propyl 3,4,5-trimethoxybenzoate], the “% displacement at 1 μM” value was -7 (-7, -8) %.
As for “3-(4-(3-((3-(methylamino)benzoyl)oxy)propyl)piperazin-1-yl)propyl 3,4,5-trimethoxybenzoate [Compound 6j]”, the “% displacement at 1 μM” value is recorded as 17 (16, 19) %.
Still for that read-out and setting: for `COc1cc(OC)cc(C(=O)OCCCN2CCN(CCCOC(=O)c3cc(OC)cc(OC)c3)CC2)c1` [Compound 6t, piperazine-1,4-diylbis(propane-3,1-diyl) bis(3,5-dimethoxybenzoate)] the value was “little to no displacement and 8 (12, 4) %”.
Regarding `COc1ccc(C(=O)OCCCN2CCN(CCCOC(=O)c3cc(OC)c(OC)c(OC)c3)CC2)cc1OC` [Compound 6n, 3-(4-(3-((3,4-dimethoxybenzoyl)oxy)propyl)piperazin-1-yl)propyl 3,4,5-trimethoxybenzoate], the “decrease in affinity compared to ST7092” value is reported as 80 fold and the Ki is 136 nM.
As for `COc1cc(C(=O)OCCCN2CCN(CCCOC(=O)c3ccc(C)cc3)CC2)cc(OC)c1OC` [Compound 6b, 3-(4-(3-((4-methylbenzoyl)oxy)propyl)piperazin-1-yl)propyl 3,4,5-trimethoxybenzoate], the “% displacement at 1 μM” value was 7 (10, 3) %.
Same read-out and setting: the value for `COc1ccccc1C(=O)OCCCN1CCN(CCCOC(=O)c2ccccc2OC)CC1` [Compound 6p, piperazine-1,4-diylbis(propane-3,1-diyl) bis(2-methoxybenzoate)] was 7 (15, -1) %.
As for `COc1cccc(C(=O)OCCCN2CCN(CCCOC(=O)c3cccc(OC)c3)CC2)c1` [Compound 6q, piperazine-1,4-diylbis(propane-3,1-diyl) bis(3-methoxybenzoate)], the “% displacement at 1 μM” value was 8 (11, 4) %.
As for `COc1ccc(C(=O)OCCCN2CCN(CCCOC(=O)c3ccc(OC)cc3)CC2)cc1` [Compound 6r, piperazine-1,4-diylbis(propane-3,1-diyl) bis(4-methoxybenzoate)], the “% displacement at 1 μM” value is recorded as -8 (-5, -11) %.
Regarding `COc1cc(C(=O)OCCCN2CCN(CCCOC(=O)c3ccccc3)CC2)cc(OC)c1OC` [Compound 6a, 3-(4-(3-(benzoyloxy)propyl)piperazin-1-yl)propyl 3,4,5-trimethoxybenzoate], the “% displacement at 1 μM” value is -3 (0, -5) %.
As for `COc1cc(OC)cc(C(=O)OCCCN2CCN(CCCOC(=O)c3cc(OC)c(OC)c(OC)c3)CC2)c1` [Compound 6o, 3-(4-(3-((3,5-dimethoxybenzoyl)oxy)propyl)piperazin-1-yl)propyl 3,4,5-trimethoxybenzoate], the “decrease in affinity compared to ST7092” value is listed as 80 fold and the inhibition constant Ki was 146 nM.
As for `COc1ccc(C(=O)OCCCN2CCN(CCCOC(=O)c3cc(OC)c(OC)c(OC)c3)CC2)cc1` [Compound 6m, 3-(4-(3-((4-methoxybenzoyl)oxy)propyl)piperazin-1-yl)propyl 3,4,5-trimethoxybenzoate], the “% displacement at 1 μM” value was “around 30% and 36 (39, 33) %”.
Turning to `COc1cc(C(=O)OCCCN2CCN(CCCOC(=O)c3ccc(Cl)cc3)CC2)cc(OC)c1OC` [Compound 6e, 3-(4-(3-((4-chlorobenzoyl)oxy)propyl)piperazin-1-yl)propyl 3,4,5-trimethoxybenzoate], the “% displacement at 1 μM” value was “not able to inhibit [^3H]NBTI binding and 1 (3, -1) %”.
On to `COc1cc(C(=O)OCCCN2CCN(CCCOC(=O)c3ccc(Cl)c(Cl)c3)CC2)cc(OC)c1OC` [Compound 6f, 3-(4-(3-((3,4-dichlorobenzoyl)oxy)propyl)piperazin-1-yl)propyl 3,4,5-trimethoxybenzoate], for which the “% displacement at 1 μM” value is -4 (-7, -1) %.
Turning to `COc1cc(C(=O)OCCCN2CCN(CCCOC(=O)c3cc(C)cc(C)c3)CC2)cc(OC)c1OC` [Compound 6d, 3-(4-(3-((3,5-dimethylbenzoyl)oxy)propyl)piperazin-1-yl)propyl 3,4,5-trimethoxybenzoate], the “% displacement at 1 μM” value was -4 (-4, -4) %.
For `COc1ccccc1C(=O)OCCCN1CCN(CCCOC(=O)c2cc(OC)c(OC)c(OC)c2)CC1` [Compound 6k, 3-(4-(3-((2-methoxybenzoyl)oxy)propyl)piperazin-1-yl)propyl 3,4,5-trimethoxybenzoate], the “% displacement at 1 μM” value was “little to no displacement and 6 (5, 8) %”.
Turning to `COc1cc(C(=O)OCCCN2CCN(CCCOC(=O)c3cc(OC)c(OC)c(OC)c3)CC2)cc(OC)c1OC` [ST7092, reference compound], the affinity, expressed as Ki, was 1.79 nM. In other words, the single-digit nanomolar range.
`COc1cc(OC)cc(C(=O)OCCCN2CCN(CCCOC(=O)c3ccc(OC)c(OC)c3)CC2)c1` [Compound 6v, 3-(4-(3-((3,5-dimethoxybenzoyl)oxy)propyl)piperazin-1-yl)propyl 3,4-dimethoxybenzoate]: the “% displacement at 1 μM” value is “around 30% and 34 (42, 26) %”.
As to `COc1cc(C(=O)OCCCN2CCN(CCCOC(=O)c3cccc(N(C)C)c3)CC2)cc(OC)c1OC` [Compound 6g, 3-(4-(3-((3-(dimethylamino)benzoyl)oxy)propyl)piperazin-1-yl)propyl 3,4,5-trimethoxybenzoate], the “% displacement at 1 μM” value is recorded as 21 (21, 21) %.
Regarding `COc1cccc(C(=O)OCCCN2CCN(CCCOC(=O)c3cc(OC)c(OC)c(OC)c3)CC2)c1` [Compound 6l, 3-(4-(3-((3-methoxybenzoyl)oxy)propyl)piperazin-1-yl)propyl 3,4,5-trimethoxybenzoate], the “% displacement at 1 μM” value was “little to no displacement and 9 (3, 16) %”.
The same measure, in the same setting: for `COc1ccc(C(=O)OCCCN2CCN(CCCOC(=O)c3ccc(OC)c(OC)c3)CC2)cc1OC` [Compound 6s, piperazine-1,4-diylbis(propane-3,1-diyl) bis(3,4-dimethoxybenzoate)] the value was “around 30% and 27 (33, 21) %”.
